Test: xn = mol fraction of the nth substance listed
Conditions: 101.3 kPa, Liquid

COCCOC [1,2-dimethoxyethane] + ClCCCl
mass density [kg/m3]
Conditions	308.15 K	313.15 K	318.15 K	323.15 K	328.15 K	333.15 K
x2 = 0.0251	–	852.25	846.59	840.89	835.13	829.32
x2 = 0.05	–	859.77	854.09	848.36	842.55	836.72
x2 = 0.0501	–	859.82	854.13	848.39	842.6	836.76
x2 = 0.075	–	867.42	861.7	855.93	850.11	844.24
x2 = 0.1	–	875.11	869.35	863.55	857.7	851.8
x2 = 0.1552	–	892.54	886.71	880.84	874.92	868.95
x2 = 0.2001	–	906.96	901.08	895.15	889.17	883.15
x2 = 0.2501	–	923.37	917.42	911.42	905.37	899.27
x2 = 0.3002	–	940.18	934.15	928.08	921.97	915.79
x2 = 0.35	–	957.24	951.14	945	938.81	932.56
x2 = 0.4001	–	974.8	968.62	962.41	956.14	949.82
x2 = 0.45	–	992.71	986.46	980.16	973.82	967.42
x2 = 0.5	1017.36	1011.06	1004.73	998.35	991.93	985.45
x2 = 0.5001	1017.45	1011.16	1004.83	998.45	992.02	985.53
x2 = 0.55	1036.29	1029.91	1023.49	1017.03	1010.51	1003.94
x2 = 0.6001	1055.67	1049.2	1042.69	1036.13	1029.53	1022.87
x2 = 0.65	1075.5	1068.94	1062.34	1055.68	1048.98	1042.24
x2 = 0.7	1095.88	1089.21	1082.51	1075.76	1068.97	1062.12
x2 = 0.75	1116.88	1110.11	1103.31	1096.45	1089.55	1082.61
x2 = 0.8	1138.31	1131.44	1124.52	1117.56	1110.55	1103.5
x2 = 0.85	1160.61	1153.62	1146.58	1139.51	1132.39	1125.22
x2 = 0.9	1183.44	1176.32	1169.16	1161.97	1154.73	1147.44
x2 = 0.925	1195	1187.82	1180.61	1173.35	1166.05	1158.7
x2 = 0.975	1218.9	1211.59	1204.25	1196.86	1189.43	1181.97

Reference: the NIST ThermoML archive (doi:10.1021/je101361u)
